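These data come from cells grown in 96-well plates and exposed to compound for 48 hours at five concentrations. TGI: concentration producing complete growth inhibition.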
Assays:
Assay in all cases: NCI-60 cell line screen, 48 h
MCF7 breast = system: MCF7 breast
SK-MEL-28 melanoma = system: SK-MEL-28 melanoma
OVCAR-5 ovarian = system: OVCAR-5 ovarian
MOLT-4 leukemia = system: MOLT-4 leukemia
HL-60(TB) leukemia = system: HL-60(TB) leukemia
HCC-2998 colon = system: HCC-2998 colon
OVCAR-4 ovarian = system: OVCAR-4 ovarian
MDA-MB-231 breast = system: MDA-MB-231 breast
HT29 colon = system: HT29 colon
SK-MEL-5 melanoma = system: SK-MEL-5 melanoma

Row | SMILES | TGI (MCF7 breast) [µM] | TGI (SK-MEL-28 melanoma) [µM] | TGI (OVCAR-5 ovarian) [µM] | TGI (MOLT-4 leukemia) [µM] | TGI (HL-60(TB) leukemia) [µM] | TGI (HCC-2998 colon) [µM] | TGI (OVCAR-4 ovarian) [µM] | TGI (MDA-MB-231 breast) [µM] | TGI (HT29 colon) [µM] | TGI (SK-MEL-5 melanoma) [µM]
1 | CCOC(=O)C#Cc1ccccc1 | 75.2 | 44.3 | 19.3 | 12.8 | 36.5 | 27.8 | 11.7 | 95.1 | 21.4 | 17.4
2 | CC(=O)O[C@H]1CCc2c(cc(N)c3c2C(=O)C[C@]2(C)C([C@H](C)CCCC(C)C)CCC32C)C1(C)C (stereo not given in full) | > 100 | > 100 | > 100 | > 100 | > 100 | > 100 | > 100 | > 100 | > 100 | > 100
3 | Cc1ccc(C2=CC(=O)/C(=C\C(=O)c3ccc(Cl)cc3)O2)cc1 | 25.6 | 33.1 | 40.6 | > 100 | 4.74 | 51.1 | 33.5 | 25.1 | 15.1 | 33.2
4 | O=C(N/N=C/c1ccc(Br)cc1)N/N=C/c1ccc(Br)cc1 | > 100 | 26.9 | 95.8 | 30.2 | 31.1 | 91.4 | 5.11 | 16.2 | 26 | 31.6
5 | Oc1[nH]c2ccccc2c1N=NC(=S)Nc1ccc(Cl)cc1 | > 100 | > 100 | > 100 | > 100 | > 100 | > 100 | > 100 | 99.6 | > 100 | 63.4
6 | O=c1[nH]nc(Cc2ccccc2)n1/N=C/c1ccncc1 | > 100 | > 100 | > 100 | > 100 | > 100 | > 100 | > 100 | > 100 | > 100 | > 100
7 | N#Cc1c(-c2ccccc2)cc(-c2ccc(Cl)cc2)[nH]c1=S | 53.1 | 80.1 | > 100 | > 100 | > 100 | > 100 | > 100 | 67.3 | > 100 | 39
8 | CCCCn1c(-c2ccc([N+](=O)[O-])cc2)cs/c1=N/N=C1\C(=O)Nc2ccc(Br)cc21 | 17.7 | > 100 | > 100 | 46.5 | 85.9 | 34.7 | 31.8 | 32.7 | 33.1 | 27.8
9 | N#Cc1nc(C2CCC2)oc1N | > 100 | > 100 | > 100 | > 100 | > 100 | > 100 | > 100 | > 100 | > 100 | > 100
10 | O=c1[nH]c(Nc2cccc(CO)c2)nc2nc[nH]c12 | > 100 | > 100 | > 100 | > 100 | > 100 | > 100 | > 100 | > 100 | > 100 | > 100
11 | COC1CC(OC2CCC3(C)C(=CCC4C3C(OC(C)=O)C(OC(=O)CC(C)C)C3(C)C(C(C)=O)CCC43O)C2)OC(C)C1OC1CC(OC)C(OC2CC(OC)C(OC3OC(C)C(OC4OC(CO)C(O)C(O)C4O)C(OC)C3O)C(C)O2)C(C)O1 (stereo not given) | > 75 | > 75 | > 75 | > 75 | > 75 | > 75 | > 75 | > 75 | > 75 | > 75
